pIC50: −log10 of the molar value. Read-outs that look alike come from different tables or passages of the source.
Assays:
[1] = molecular target: T1, human transporter OCT2 (Homo sapiens, UniProt O15244); assay: In vitro ion transport assay 1, OCT2; format: cell-based; settings: probe substrate 10 μM [14C]-metformin
T1 construct: expressed in transfected cells; host or cells: MDCK-II
T1 sequence (O15244 1-555): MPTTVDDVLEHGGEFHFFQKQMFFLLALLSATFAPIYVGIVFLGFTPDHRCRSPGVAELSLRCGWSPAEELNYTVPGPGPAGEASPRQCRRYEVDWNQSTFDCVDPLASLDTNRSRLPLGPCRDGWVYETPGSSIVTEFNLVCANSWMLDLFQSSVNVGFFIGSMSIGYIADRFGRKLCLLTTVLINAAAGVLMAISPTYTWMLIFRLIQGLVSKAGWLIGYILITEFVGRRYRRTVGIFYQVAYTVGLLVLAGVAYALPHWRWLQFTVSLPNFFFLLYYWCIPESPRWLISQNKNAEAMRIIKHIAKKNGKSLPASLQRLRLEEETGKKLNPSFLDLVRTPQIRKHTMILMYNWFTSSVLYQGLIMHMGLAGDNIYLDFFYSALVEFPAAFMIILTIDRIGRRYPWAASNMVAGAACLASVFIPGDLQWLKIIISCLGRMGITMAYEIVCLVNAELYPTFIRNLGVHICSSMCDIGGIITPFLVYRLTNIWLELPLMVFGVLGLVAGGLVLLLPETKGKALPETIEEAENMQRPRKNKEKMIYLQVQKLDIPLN
Description: (§1) Compound 1 was studied in the concentration range of 0.1-100 μM for its potency against transport mediated by various transporter proteins. [table]

[2] = molecular target: T2, human transporter BCRP (Homo sapiens, UniProt Q9UNQ0); assay: In vitro ion transport assay 1, BCRP; format: cell-based; settings: probe substrate 2 μM [3H]-prazosin
T2 construct: expressed in transfected cells; host or cells: MDCK-II
T2 sequence (Q9UNQ0 1-655): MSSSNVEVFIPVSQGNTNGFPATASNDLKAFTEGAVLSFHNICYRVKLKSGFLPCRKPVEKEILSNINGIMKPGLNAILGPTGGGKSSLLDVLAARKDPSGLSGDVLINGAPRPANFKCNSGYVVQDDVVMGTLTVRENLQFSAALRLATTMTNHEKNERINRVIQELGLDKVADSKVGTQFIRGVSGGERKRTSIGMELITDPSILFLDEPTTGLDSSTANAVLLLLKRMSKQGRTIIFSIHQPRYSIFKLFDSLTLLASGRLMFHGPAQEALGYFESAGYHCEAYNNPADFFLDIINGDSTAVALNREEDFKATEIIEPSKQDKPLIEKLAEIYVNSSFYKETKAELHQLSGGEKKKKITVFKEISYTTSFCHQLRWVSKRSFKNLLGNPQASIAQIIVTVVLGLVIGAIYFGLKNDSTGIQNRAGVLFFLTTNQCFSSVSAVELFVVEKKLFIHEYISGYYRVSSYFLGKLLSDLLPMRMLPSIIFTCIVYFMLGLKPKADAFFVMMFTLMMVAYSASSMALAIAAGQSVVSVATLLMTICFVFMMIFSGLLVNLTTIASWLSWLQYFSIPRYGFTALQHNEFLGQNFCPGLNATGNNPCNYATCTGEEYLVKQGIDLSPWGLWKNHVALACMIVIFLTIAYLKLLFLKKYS
Description: as §1

[3] = molecular target: T3, human transporter OAT3 (Homo sapiens, UniProt Q8TCC7); assay: In vitro transport assay 2, OAT3; format: cell-based
T3 construct: expressed in transfected cells; host or cells: MDCK-II
T3 sequence (Q8TCC7 1-542): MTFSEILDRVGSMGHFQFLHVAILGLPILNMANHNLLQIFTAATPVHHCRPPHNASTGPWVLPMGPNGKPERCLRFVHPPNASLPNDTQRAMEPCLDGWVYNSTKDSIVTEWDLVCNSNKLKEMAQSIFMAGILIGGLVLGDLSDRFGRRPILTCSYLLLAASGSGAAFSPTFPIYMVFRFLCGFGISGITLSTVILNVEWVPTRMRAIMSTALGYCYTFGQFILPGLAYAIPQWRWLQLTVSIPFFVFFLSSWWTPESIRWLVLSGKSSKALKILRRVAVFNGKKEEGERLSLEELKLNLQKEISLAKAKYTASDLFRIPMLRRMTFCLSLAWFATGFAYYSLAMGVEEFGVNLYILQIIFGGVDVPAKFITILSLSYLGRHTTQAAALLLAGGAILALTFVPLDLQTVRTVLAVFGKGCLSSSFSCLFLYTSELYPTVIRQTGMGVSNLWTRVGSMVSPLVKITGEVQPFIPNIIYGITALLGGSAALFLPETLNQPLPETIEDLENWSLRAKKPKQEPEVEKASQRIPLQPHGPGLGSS
Description: Compound 1 was studied in the concentration range of 0.1-10 μM for its potency against transport mediated by various transporter proteins.

[4] = system: PK-resistant alpha-synuclein; assay: PK-resistant (insoluble) alpha-synuclein IHC, L61 ASYN transgenic mice, 1 month study; format: in vivo; settings: for reduction of PK-resistant alpha synuclein levels in cortex compared to vehicle-treated mice: L61 ASYN transgenic mice
Description: Multiple in vivo administration studies of Compound 1 were carried out in the Line 61 (L61) mThy1-alpha-synuclein transgenic mouse model of Parkinson's disease (PD). The mThy1-alpha-synuclein transgenic mouse model overexpresses wild-type human ASYN under the Thy-1 promoter (commonly referred to as Line 61 transgenic mice; Rockenstein et al., 2002). This transgenic mouse develops extensive accumulation of alpha-synuclein (ASYN) in areas relevant to PD (Rockenstein et al., 2002; Chesselet et al., 2012; Games et al., 2013), neurodegeneration including dopaminergic neurodegeneration, reduced dopamine (DA) and TH loss in the striatum (Masliah et al., 2000; Lam et al., 2011), and motor deficits (Fleming et al., 2004). Male transgenic and non-transgenic littermates (3-3.5 mo) were used for all in vivo studies presented here.
Alpha-synuclein (ASYN) is a neuronal protein whose dysregulation has been implicated in the pathogenesis of PD. The effects of Compound 1 on alpha-synuclein aggregation were assessed in both L61 ASYN transgenic and non-transgenic mice in a 1 month administration study. L61 ASYN transgenic mice (36 total mice, n=8-11 mice per treatment group) were injected (i.p.) daily with 1, 5, or 10 mg/kg of Compound 1 or a vehicle control (5% DMSO+20% Cremphor EL+0.9% normal saline) for 1 month. […] At the end of one month, the mice were sacrificed, and immunohistochemical (IHC) detection of total alpha-synuclein deposits, insoluble alpha-synuclein deposits (PK+resistant), microtubule-associated protein 1A/1B-light chain 3 (LC3), and monomeric alpha-synuclein levels were assessed in the harvested brain tissues.
The quantification and IHC staining of PK-resistant alpha-synuclein were performed using known techniques (Rockenstein et al., J Neurosci Res. 2002, 68(5):568-78; Tanji et al., Acta Neuropathol. 2010, 120, 145-154; Nuber et al., Brain. 2013 February; 136(Pt 2):412-32).

## O=S(=O)(c1ccc(-n2cn[nH]c2=S)cc1)c1ccc(Cl)c(C(F)(F)F)c1 [Compound 1, 4-(4-((4-chloro-3-(trifluoromethyl)phenyl)sulfonyl)phenyl)-2,4-dihydro-3H-1,2,4-triazole-3-thione]
[1]
  pIC50: < 4.00
[2]
  pIC50: 4.29
[3]; 100 nM [3H]-estrone-3-sulfate, read-out: IC50, OAT3 (Substrate: E3S)
  pIC50: 6.05
[3]; 10 μM [3H]-p-aminohippurate, read-out: IC50, OAT3 (Substrate: PAH)
  pIC50: 6.60
[4]; 5 mg/kg daily i.p.
  reduction of PK-resistant alpha synuclein levels in cortex compared to vehicle-treated mice: 37%
[4]; 10 mg/kg daily i.p.
  reduction of PK-resistant alpha synuclein levels in cortex compared to vehicle-treated mice: 36%
[4]; 1, 5 or 10 mg/kg per day i.p., statistically significant
  insoluble alpha-synuclein deposits (PK+resistant) in cortex, hippocampus and striatum: reduced the insoluble alpha-synuclein deposits

Source: US20210290597A1, “METHOD OF TREATING A CONDITION ASSOCIATED WITH NEURODEGENERATION USING INHIBITORS OF OAT3” (Neuropore Therapies, Inc., priority 2018, published 2021)
